Tests used:
Type in all cases: in vivo
[1] = system: western flower thrips (Frankliniella occidentalis); assay: Insecticidal activity against western flower thrips; settings: Frankliniella occidentalis, 48 h; 500 ppm chemical solution sprinkled (2.5 mg/cm^2), larvae on common bean leaf, after 2 days; read-out: death rate
Protocol: Wet filter paper was laid on each styrol cup having an inner diameter of 7 cm, and a common bean leaf cut into a 3 cm square was placed thereon, and inoculated with 20 western flower thrips (Frankliniella occidentalis) larvae. A 10% by mass emulsion of the presently invented compound prepared according to the above formulation example for an emulsion was diluted with water containing a spreader to prepare a chemical solution having a concentration of 500 ppm. For each styrol cup, 2.5 ml of the chemical solution prepared was sprinkled (2.5 mg/cm^2) with a rotary tower sprinkler. […] The test was carried out in duplicate.

[2] = system: diamondback moths (Plutella xylostella); assay: Insecticidal test for diamondback moths; settings: Plutella xylostella, 144 h; 500 ppm chemical solution, leaves soaked, third-instar larvae, six days, 25°C; read-out: death rate
Protocol: A 10% by mass emulsion of the presently invented compound prepared according to the above formulation example for an emulsion was diluted with water containing a spreader to prepare a chemical solution having a concentration of 500 ppm. Chinese olive leaves were soaked in the chemical solution for approximately 10 seconds. After the completion of the soaking operation, the Chinese olive leaves treated with the chemical solution were air-dried, and then put in dishes. Into each dish, five third-instar diamondback moths (Plutella xylostella) larvae were released, and the dishes were capped and accommodated in a thermostatic room at 25°C. […] The test was carried out in duplicate.

[3] = system: cat fleas (Ctenocephalides felis); assay: whole plant or invertebrate; settings: 72 h, read-out: death rate
Protocol: In 1 ml of acetone, 1 mg of the presently invented compound was dissolved to prepare a chemical solution having a concentration of 1000 ppm. The bottom surface and side surface of each glass container having an inner wall surface area of 25 cm^2 were coated with 250 µl of the chemical solution, and acetone was then volatilized to form a thin film of the compound on the inner wall of the glass container.
Into each of the treated glass containers, five cat fleas (Ctenocephalides felis) imagoes (mixed-sex) were released, and the glass containers were capped and accommodated in a thermostatic room at 25°C. Three days after the release, the number of dead flea individuals were examined, and the death rate was calculated from the same calculation formula as in Test Example 1.

[4] = system: brown rice planthoppers (Nilaparvata lugens); assay: Insecticidal test for brown rice planthoppers; settings: Nilaparvata lugens, 144 h; 500 ppm chemical solution, rice leaf sheaths soaked, third-instar larvae, six days, 25°C; read-out: death rate
Protocol: A 10% by mass emulsion of the presently invented compound prepared according to the above formulation example for an emulsion was diluted with water containing a spreader to prepare a chemical solution having a concentration of 500 ppm. Rice leaf sheaths were soaked in the chemical solution for approximately 10 seconds. After the completion of the soaking operation, the rice leaf sheaths treated with the chemical solution were air-dried, and then put in test tubes. Into each test tube, five third-instar brown rice planthoppers (Nilaparvata lugens) larvae were released, and the test tubes were capped with sponge and accommodated in a thermostatic room at 25°C. Six days after the accommodation, the number of dead brown rice planthoppers individuals in the test tubes were examined, and the death rate was calculated from a calculation formula shown below. The test was carried out in duplicate. [formula]

Row | Compound | mortality at 500 µg/mL [1] [%] | mortality at 500 µg/mL [2] [%] | mortality at 10 µg/cm2 [3] [%] | mortality at 500 µg/mL [4] [%]
1 | O=C(Nc1ccc(Cl)nc1)C1=C(O)CC(c2cnc(Cl)c(-c3ccccc3)c2)NC1=O (centres unmarked) [2-092] | ≥ 90 | ≥ 90 | ≥ 50 | ≥ 90
2 | N#Cc1ccc(NC(=O)C2=C(O)CC(c3cnc(Cl)c(-c4ccccc4)c3)NC2=O)cn1 (centres unmarked) [2-093] | ≥ 90 | ≥ 90 | ≥ 50 | ≥ 90
3 | N#Cc1ccc(NC(=O)C2=C(O)CC(c3cnc(Cl)c(-c4ccccc4)c3)NC2=O)nc1 (centres unmarked) [2-094] | ≥ 90 | ≥ 90 | ≥ 50 | ≥ 90
4 | O=C(Nc1cnc(Cl)cn1)C1=C(O)CC(c2cnc(Cl)c(-c3ccccc3)c2)NC1=O (centres unmarked) [2-095] | ≥ 90 | ≥ 90 | ≥ 50 | ≥ 90
5 | O=C(Nc1ccccn1)C1=C(O)CC(c2cnc(Cl)c(-c3ccc(F)nc3)c2)NC1=O (centres unmarked) [2-096] | ≥ 90 | ≥ 90 | ≥ 50 | ≥ 90
6 | O=C(Nc1ccncn1)C1=C(O)CC(c2cnc(Cl)c(-c3ccc(F)nc3)c2)NC1=O (centres unmarked) [2-101] | ≥ 90 | ≥ 90 | ≥ 50 | ≥ 90
7 | O=C(Nc1ncccn1)C1=C(O)CC(c2cnc(Cl)c(-c3cnccc3F)c2)NC1=O (centres unmarked) [2-134] | ≥ 90 | ≥ 90 | ≥ 50 | ≥ 90
8 | O=C(Nc1nccs1)C1=C(O)CC(c2cnc(Cl)c(-c3cnccc3F)c2)NC1=O (centres unmarked) [2-135] | ≥ 90 | ≥ 90 | ≥ 50 | ≥ 90
9 | O=C(Nc1ccc(F)cn1)C1=C(O)CC(c2cnc(Cl)c(-c3cnccc3F)c2)NC1=O (centres unmarked) [2-136] | ≥ 90 | ≥ 90 | ≥ 50 | ≥ 90
10 | O=C(Nc1cc(Br)cc(F)n1)C1=C(O)CC(c2cnc(Cl)c(-c3cnccc3F)c2)NC1=O (centres unmarked) [2-138] | ≥ 90 | ≥ 90 | ≥ 50 | ≥ 90
11 | O=C(Nc1cncc(F)c1Br)C1=C(O)CC(c2cnc(Cl)c(-c3cnccc3F)c2)NC1=O (centres unmarked) [2-139] | ≥ 90 | ≥ 90 | ≥ 50 | ≥ 90
12 | O=C(Nc1cc(Br)c(F)cn1)C1=C(O)CC(c2cnc(Cl)c(-c3cnccc3F)c2)NC1=O (centres unmarked) [2-140] | ≥ 90 | ≥ 90 | ≥ 50 | ≥ 90
13 | O=C(Nc1cccc(F)n1)C1=C(O)CC(c2cnc(Cl)c(-c3cnccc3F)c2)NC1=O (centres unmarked) [2-142] | ≥ 90 | ≥ 90 | ≥ 50 | ≥ 90
14 | O=C(Nc1cc(Br)ccn1)C1=C(O)CC(c2cnc(Cl)c(-c3cnccc3F)c2)NC1=O (centres unmarked) [2-144] | ≥ 90 | ≥ 90 | ≥ 50 | ≥ 90
15 | O=C(Nc1cc(C(F)(F)F)ccn1)C1=C(O)CC(c2cnc(Cl)c(-c3cnccc3F)c2)NC1=O (centres unmarked) [2-145] | ≥ 90 | ≥ 90 | ≥ 50 | ≥ 90
16 | O=C(Nc1cnccn1)C1=C(O)CC(c2cnc(Cl)c(-c3cncc(Cl)c3)c2)NC1=O (centres unmarked) [2-147] | ≥ 90 | ≥ 90 | ≥ 50 | ≥ 90

Row | Compound | mortality at 500 µg/mL [1] [%] | mortality at 500 µg/mL [2] [%] | mortality at 10 µg/cm2 [3] [%] | mortality at 500 µg/mL [4] [%]
17 | O=C(Nc1cnccn1)C1=C(O)CC(c2cnc(Cl)c(-c3ccc(F)cc3)c2)NC1=O (centres unmarked) [2-227] | ≥ 90 | ≥ 90 | ≥ 50 | ≥ 90
18 | O=C(Nc1nccs1)C1=C(O)CC(c2cnc(Cl)c(-c3ccc(F)cc3)c2)NC1=O (centres unmarked) [2-235] | ≥ 90 | ≥ 90 | ≥ 50 | ≥ 90
19 | Cc1cccc(-c2cc(C3CC(O)=C(C(=O)Nc4ccccn4)C(=O)N3)cnc2Cl)c1 (centres unmarked) [2-260] | ≥ 90 | ≥ 90 | ≥ 50 | ≥ 90
20 | Cc1cccc(-c2cc(C3CC(O)=C(C(=O)Nc4cnccn4)C(=O)N3)cnc2Cl)c1 (centres unmarked) [2-261] | ≥ 90 | ≥ 90 | ≥ 50 | ≥ 90
21 | Cc1cccc(-c2cc(C3CC(O)=C(C(=O)Nc4ccc(F)cc4)C(=O)N3)cnc2Cl)c1 (centres unmarked) [2-263] | ≥ 90 | ≥ 90 | ≥ 50 | ≥ 90
22 | Cc1cccc(-c2cc(C3CC(O)=C(C(=O)Nc4ccc(C#N)cc4)C(=O)N3)cnc2Cl)c1 (centres unmarked) [2-269] | ≥ 90 | ≥ 90 | ≥ 50 | ≥ 90
23 | O=C(Nc1ccc(F)cc1)C1=C(O)CC(c2nc(-c3ccccc3)no2)NC1=O (centres unmarked) [3-001] | ≥ 90 | ≥ 90 | ≥ 50 | ≥ 90
24 | O=C(Nc1ccc(F)cc1)C1=C(O)CC(c2nc(-c3cccc(C(F)(F)F)c3)no2)NC1=O (centres unmarked) [3-005] | ≥ 90 | ≥ 90 | ≥ 50 | ≥ 90
25 | O=C(Nc1ccc(F)cc1)C1=C(O)CC(c2nc(-c3ccccn3)no2)NC1=O (centres unmarked) [3-006] | ≥ 90 | ≥ 90 | ≥ 50 | ≥ 90
26 | O=C(Nc1ccc(F)cc1)C1=C(O)CC(c2nc(-c3cccnc3)no2)NC1=O (centres unmarked) [3-007] | ≥ 90 | ≥ 90 | ≥ 50 | ≥ 90
27 | O=C(Nc1ccc(F)cc1)C1=C(O)CC(c2nc(-c3ccc(F)cc3)no2)NC1=O (centres unmarked) [3-010] | ≥ 90 | ≥ 90 | ≥ 50 | ≥ 90
28 | O=C(Nc1ccc(F)cc1)C1=C(O)CC(c2nc(-c3ccccc3F)no2)NC1=O (centres unmarked) [3-012] | ≥ 90 | ≥ 90 | ≥ 50 | ≥ 90
29 | O=C(Nc1ccc(F)cc1)C1=C(O)CC(c2nc(-c3cncc(F)c3)no2)NC1=O (centres unmarked) [3-021] | ≥ 90 | ≥ 90 | ≥ 50 | ≥ 90
30 | O=C(Nc1ccc(F)cc1)C1=C(O)CC(c2nc(-c3cc(F)ccc3F)no2)NC1=O (centres unmarked) [3-026] | ≥ 90 | ≥ 90 | ≥ 50 | ≥ 90
31 | O=C(Nc1ccc(F)cc1)C1=C(O)CC(c2nc(-c3cccc(Cl)c3)no2)NC1=O (centres unmarked) [3-029] | ≥ 90 | ≥ 90 | ≥ 50 | ≥ 90
32 | Cc1cccc(-c2noc(C3CC(O)=C(C(=O)Nc4ccc(F)cc4)C(=O)N3)n2)c1 (centres unmarked) [3-030] | ≥ 90 | ≥ 90 | ≥ 50 | ≥ 90

From patent publication EP4582413A1, “ARYLTETRAHYDROPYRIDINE COMPOUND AND PEST CONTROL AGENT” (priority 2022, dated 2024)
